Assay results reported in US7314709B2, “Compositions and methods for detecting and quantifying COX-2 activity by lipoamino acid metabolism” (Vanderbilt University, priority 2002, dated 2008).
Numbering of substitutions follows the chain as printed.

Key:
Type in all cases: biochemical, murine
mCOX-2 R120Q = biological target: T1, mCOX-2 R120Q (Mus musculus, UniProt Q05769, R106Q); test: Initial O2 uptake rate with constriction site mutant R120Q; settings: 200 nM enzyme; AA 100 μM, NAGly 200 μM
T1 construct: made in house; host or cells: Sf-9 insect cells
T1 sequence (Q05769 18-604 R106Q): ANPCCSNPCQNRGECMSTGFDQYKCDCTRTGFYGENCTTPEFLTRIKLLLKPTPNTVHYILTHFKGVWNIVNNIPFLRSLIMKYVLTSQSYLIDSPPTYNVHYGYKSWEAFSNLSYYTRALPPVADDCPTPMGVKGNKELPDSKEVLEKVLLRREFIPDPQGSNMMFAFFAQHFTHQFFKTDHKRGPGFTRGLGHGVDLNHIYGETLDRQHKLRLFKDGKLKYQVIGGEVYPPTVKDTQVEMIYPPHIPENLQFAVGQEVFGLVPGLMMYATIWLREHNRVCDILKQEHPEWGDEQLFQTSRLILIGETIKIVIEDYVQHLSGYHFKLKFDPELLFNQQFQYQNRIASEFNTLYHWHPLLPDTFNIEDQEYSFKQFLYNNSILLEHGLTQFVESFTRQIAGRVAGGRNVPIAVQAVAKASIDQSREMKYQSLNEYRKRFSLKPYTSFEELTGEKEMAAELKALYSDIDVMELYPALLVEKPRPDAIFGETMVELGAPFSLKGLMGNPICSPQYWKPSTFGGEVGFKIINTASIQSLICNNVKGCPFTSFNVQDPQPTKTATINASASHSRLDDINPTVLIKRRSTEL
Procedure: (§1) Enzymology: COX-1 was purified from ram seminal vesicles as previously described. Site-directed mutagenesis of COX-2 was performed as described previously. Recombinant COX-2 enzymes were expressed in Sf-9 insect cells and purified by ion-exchange chromatography and gel filtration as previously described. Apo-enzymes were reconstituted with hematin prior to activity assays.
(§2) COX activity was quantified as previously described. Initial reaction velocity data were obtained from the linear portion of the oxygen uptake curves. Oxygraph data were analyzed by nonlinear regression with Enzyme Kinetics 1.5 software (Trinity Software, Campton, N.H.).
At the bottom of the substrate (and inhibitor) binding site, there is a hydrogen bonding network comprised of residues Arg-120, Tyr-355, and Glu524, that form a constriction which is present in both COX isoforms. These residues contribute to the binding of the carboxylate in both AA and NSAIDs, and the glycerol moiety of 2-AG [12,23-27].

[1] = biological target: T2, mCOX-2 V4341/R513H/V5231 (VRV) (Mus musculus, UniProt Q05769, R499H/V420I/V509I); test: Initial O2 uptake rate with side pocket triple mutant (VRV); settings: 200 nM enzyme; AA 100 μM, NAGly 200 μM
T2 construct: made in house; host or cells: Sf-9 insect cells
T2 sequence (Q05769 18-604 V420I/R499H/V509I): T1 sequence (Q05769 18-604 R106Q) with Q89R, V403I, R482H, V492I
Procedure: as §1, §2
(§3) Previous studies have identified residues in the side pocket of COX-2, especially Arg-513, as critical determinants of 2-AG oxygenation by COX-2 [13]. […] (FIG. 5).

mCOX-2 Y385F = biological target: T3, mCOX-2 Y385F (Mus musculus, UniProt Q05769, Y371F); test: O2 uptake with mCOX-2 site-directed mutant Y385F
T3 construct: made in house; host or cells: Sf-9 insect cells
T3 sequence (Q05769 18-604 Y371F): T1 sequence (Q05769 18-604 R106Q) with Q89R, Y354F
Procedure: as §1, §2
AA binds in the COX active site with the […] near Gly-533 [20,27].

mCOX-2 R513H/V523I = biological target: T4, mCOX-2 R513H/V523I (Mus musculus, UniProt Q05769, R499H/V509I); test: Initial O2 uptake rate with side pocket double mutant R513H/V523I; settings: 200 nM enzyme; AA 100 μM, NAGly 200 μM
T4 construct: made in house; host or cells: Sf-9 insect cells
T4 sequence (Q05769 18-604 R499H/V509I): T1 sequence (Q05769 18-604 R106Q) with Q89R, R482H, V492I
Procedure: as §1, §2, §3

## CCCCC/C=C\C/C=C\C/C=C\C/C=C\CCCC(=O)O [AA, arachidonic acid]
mCOX-2 R120Q
  reduction in initial rate of oxygenation compared with wild-type: < 3 fold
[1]
  effect of mutation on oxygenation: did not greatly affect
mCOX-2 Y385F
  substrate oxidation by Y385F: fails to oxidize
mCOX-2 R513H/V523I
  effect of mutation on oxygenation rate: did not greatly affect
